Measured values taken from US20060264460A1 (Wyeth, priority 2005, published 2006).
Each block holds one molecule with its values, some of them ahead of it.

Molecular target: T1, human Cot/Tpl2 kinase (Homo sapiens, UniProt P41279)
T1 construct: human Cot/Tpl2 kinase construct encoding residues 30-398; 6His (N); made in house; host or cells: Sf9 insect cells, baculovirus system (BD Biosciences)
Experiment: Tpl2/Cot kinase assay: GST-MEK1 phosphorylation detected by ELISA (DELFIA Eu)
Assay type: biochemical
Outline: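 His-tagged human Tpl2 from Sf9 cells, Ni-affinity and size-exclusion purified (monomer). 0.4 nM Tpl2 with 35 nM GST-MEK1, 50 uM ATP, MOPS pH 7.2, 1% DMSO, 1 h at 30° C; EDTA stop. MEK1 Ser217/221 phosphorylation detected by anti-phospho-MEK1 and Eu-labelled secondary ELISA; IC50 fitted.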

[1] = 0.4 nM Tpl2, 35 nM GST-MEK1, 50 uM ATP, 1 h at 30° C.
[2] = Table 2, Tpl2/Cot kinase, GST-MEK1 substrate, 50 uM ATP
[3] = Tpl2/Cot kinase, GST-MEK1 substrate, 50 uM ATP
[4] = Tpl2/Cot kinase, GST-MEK1 substrate, 50 uM ATP, 1 h at 30° C., Table 2

T1 sequence (P41279 30-398): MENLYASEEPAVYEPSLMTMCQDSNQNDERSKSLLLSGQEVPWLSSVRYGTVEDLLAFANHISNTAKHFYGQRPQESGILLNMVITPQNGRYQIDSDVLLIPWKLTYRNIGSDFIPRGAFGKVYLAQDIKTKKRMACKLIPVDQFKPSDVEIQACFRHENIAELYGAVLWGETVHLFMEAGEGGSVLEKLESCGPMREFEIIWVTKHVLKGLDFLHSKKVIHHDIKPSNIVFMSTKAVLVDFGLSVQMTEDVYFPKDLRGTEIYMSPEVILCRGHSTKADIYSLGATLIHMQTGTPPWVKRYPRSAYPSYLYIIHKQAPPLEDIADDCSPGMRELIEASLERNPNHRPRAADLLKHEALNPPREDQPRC

Molecule: Cc1nn(C)c(N2CCOCC2)c1CNc1ccc2ncc(C#N)c(Nc3ccc(F)c(Cl)c3)c2c1 [Example 38, 4-(3-Chloro-4-fluoro-phenylamino)-6-[(1,3-dimethyl-5-morpholin-4-yl-1H-pyrazol-4-ylmethyl)-amino]-quinoline-3-carbonitrile]
IC50 [1]: 2600 nM

Molecule: N#Cc1cnc2c(Br)cc(NCc3nn[nH]c3-c3ccccc3C(F)(F)F)cc2c1Nc1ccc(F)c(Cl)c1 [Example 153, 8-bromo-4-[(3-chloro-4-fluorophenyl)amino]-6-[({5-[2-(trifluoromethyl)phenyl]-1H-1,2,3-triazol-4-yl}methyl)amino]quinoline-3-carbonitrile]
IC50 [1]: 220 nM

Molecule: N#Cc1cnc2ccc(NCc3cccc(C(=O)O)c3)cc2c1Nc1ccc(F)c(Cl)c1 [Example 398]
IC50 [2]: 180 nM

Molecule: CN1CCC(n2cc(CN(C)c3cc(Br)c4ncc(C#N)c(Nc5ccc(F)c(Cl)c5)c4c3)nn2)CC1 [Example 681]
IC50 [3]: 22 nM

Molecule: CC(C)N1CCC(Nc2ccc3ncc(C#N)c(Nc4ccc(F)c(Cl)c4)c3c2)CC1 [Example 658]
IC50 [3]: 25500 nM

Molecule: Cc1cc(CNc2cc(Cl)c3ncc(C#N)c(Nc4ccc(F)c(Cl)c4)c3c2)no1 [Example 996]
IC50 [4]: > 3000 nM

Molecule: N#Cc1cnc2c(Cl)cc(NCc3cc4n(n3)CCC4)cc2c1Nc1ccc(F)c(Cl)c1 [Example 189, 8-chloro-4-(3-chloro-4-fluorophenylamino)-6-((5,6-dihydro-4H-pyrrolo[1,2-b]pyrazol-2-yl)methylamino)quinoline-3-carbonitrile]
IC50 [1]: 100 nM

Molecule: COCCNCC(=O)N1CCCC(CNc2cc(Cl)c3ncc(C#N)c(Nc4ccc(F)c(Cl)c4)c3c2)C1 (centres unmarked) [Example 904]
IC50 [3]: 260 nM

Molecule: N#Cc1cnc2c(Br)cc(NCc3nn[nH]c3CO)cc2c1Nc1ccc(F)c(Cl)c1 [Example 294, 8-Bromo-4-(3-chloro-4-fluoro-phenylamino)-6-[(5-hydroxymethyl-1H-[1,2,3]triazol-4-ylmethyl)-amino]-quinoline-3-carbonitrile]
IC50 [1]: 500 nM

Molecule: C[S+]([O-])c1cc(NCc2cnc[nH]2)cc2c(Nc3ccc(F)c(Cl)c3)c(C#N)cnc12 (centres unmarked) [Example 284, 4-[(3-chloro-4-fluorophenyl)amino]-6-[(1H-imidazol-5-ylmethyl)amino]-8-(methylsulfinyl)quinoline-3-carbonitrile]
IC50 [1]: 20 nM

Molecule: 4-(3-Chloro-4-fluoro-phenylamino)-6-[(tetrahydro-furan-2-ylmethyl)-amino]-quinoline-3-carbonitrile [Example 41]
IC50 [1]: 2200 nM

Molecule: CNC1CCC(n2cc(CNc3cc(Cl)c4ncc(C#N)c(Nc5ccc(F)c(Cl)c5)c4c3)nn2)CC1 (centres unmarked) [Example 1036]
IC50 [4]: 40 nM

Molecule: N#Cc1cnc2c(Cl)cc(NCc3cncc(C(O)(C(F)(F)F)C(F)(F)F)c3)cc2c1Nc1ccc(F)c(Cl)c1 [Example 1019]
IC50 [4]: > 3000 nM

Molecule: CCOC(=O)CNc1ccc2ncc(C#N)c(Nc3ccc(F)c(Cl)c3)c2c1 [Example 174, Ethyl 2-(4-(3-chloro-4-fluorophenylamino)-3-cyanoquinolin-6-ylamino)acetate]
IC50 [1]: 3500 nM

Molecule: N#Cc1cnc2c(Cl)cc(NCc3cn(Cc4ccc(C(F)(F)F)cc4)nn3)cc2c1Nc1ccc(F)c(Cl)c1 [Example 583]
IC50 [2]: > 3000 nM

Molecule: CCOC(=O)C1CC1CNc1cc(Cl)c2ncc(C#N)c(Nc3ccc(F)c(Cl)c3)c2c1 (centres unmarked) [Example 884]
IC50 [3]: 660 nM

Molecule: N#Cc1cnc2c(Cl)cc(NCc3cn(CCN4CCCCCC4)nn3)cc2c1NC1CCCCCC1 [Example 949]
IC50 [4]: 460 nM

Molecule: N#Cc1cnc2c(Cl)cc(NCc3ccc(C(F)(F)F)[n+]([O-])c3)cc2c1Nc1ccc(F)c(Cl)c1 [Example 275, 8-Chloro-4-[(3-chloro-4-fluorophenyl)amino]-6-({[1-oxido-6-(trifluoromethyl)pyridin-3-yl]methyl}amino)quinoline-3-carbonitrile]
IC50 [1]: 370 nM

Molecule: N#Cc1cnc2ccc(NCc3c[nH]c(=O)[nH]c3=O)cc2c1Nc1ccc(F)c(Cl)c1 [Example 228, 4-[(3-chloro-4-fluorophenyl)amino]-6-{[(2,4-dioxo-1,2,3,4-tetrahydropyrimidin-5-yl)methyl]amino}quinoline-3-carbonitrile]
IC50 [1]: 480 nM

Molecule: Cc1cc2ncc(C#N)c(Nc3ccc(F)c(Cl)c3)c2cc1NCc1cccnc1 [Example 225, 4-[(3-Chloro-4-fluorophenyl)amino]-7-methyl-6-[(pyridin-3-ylmethyl)amino]quinoline-3-carbonitrile]
IC50 [1]: > 40000 nM

Molecule: COCCOc1ccc(C#N)cc1CNc1ccc2ncc(C#N)c(Nc3ccc(F)c(Cl)c3)c2c1 [Example 57, 4-(3-Chloro-4-fluoro-phenylamino)-6-[5-cyano-2-(2-methoxy-ethoxy)-benzylamino]-quinoline-3-carbonitrile]
IC50 [1]: 650 nM

Molecule: N#Cc1cncc(-c2ccccc2NCc2cnc[nH]2)c1Nc1ccc(F)c(Cl)c1 [Example 534]
IC50 [2]: > 3000 nM

Molecule: CC(C)N1CCC(n2cc(CNc3cc(Cl)c4ncc(C#N)c(NC5CCOCC5)c4c3)nn2)CC1 [Example 1000]
IC50 [4]: 480 nM

Molecule: N#Cc1ccc(CNc2ccc3ncc(C#N)c(Nc4ccc(F)c(Cl)c4)c3c2)cc1 [Example 19, 4-(3-Chloro-4-fluoro-phenylamino)-6-(4-cyano-benzylamino)-quinoline-3-carbonitrile]
IC50 [1]: 590 nM

Molecule: CN(C)CCNCC(=O)N1CCCC(CNc2cc(Cl)c3ncc(C#N)c(Nc4ccc(F)c(Cl)c4)c3c2)C1 (centres unmarked) [Example 920]
IC50 [3]: 860 nM

Molecule: CC(=O)N1CCC[C@H]1Cn1cc(CNc2cc(Cl)c3ncc(C#N)c(Nc4ccc(F)c(Cl)c4)c3c2)nn1 [Example 901]
IC50 [3]: 1 nM

Molecule: CN(C)CCn1cc(CNc2cc(Cl)c3ncc(C#N)c(NCC(F)(F)F)c3c2)nn1 [Example 984]
IC50 [4]: 1090 nM

Molecule: CN(C)CCn1cc(CNc2cc(Cl)c3ncc(C#N)c(NC4CCCCCC4)c3c2)nn1 [Example 950]
IC50 [4]: 620 nM

Molecule: N#Cc1cnc2ccc(NC3CCN(Cc4ccccc4)CC3)cc2c1Nc1ccc(F)c(Cl)c1 [Example 657]
IC50 [3]: 1700 nM

Molecule: N#Cc1cnc2c(Cl)cc(NCc3cn(CCC4CCN(C5CCCC5)CC4)nn3)cc2c1Nc1ccc(F)c(Cl)c1 [Example 938]
IC50 [4]: 200 nM

Molecule: CC(C)(C)OC(=O)N1CCCN(CCCn2cc(CNc3cc(Br)c4ncc(C#N)c(Nc5ccc(F)c(Cl)c5)c4c3)nn2)CC1 [Example 762]
IC50 [3]: 520 nM

Molecule: N#Cc1cnc2c(Cl)cc(NCc3cn(C4CCC(O)(c5ccccn5)CC4)nn3)cc2c1Nc1ccc(F)c(Cl)c1 (centres unmarked) [Example 335, 8-chloro-4-[(3-chloro-4-fluorophenyl)amino]-6-({[1-(4-hydroxy-4-pyridin-2-ylcyclohexyl)-1H-1,2,3-triazol-4-yl]methyl}amino)quinoline-3-carbonitrile]
IC50 [1]: 20 nM

More lines, now with the values ahead:

IC50 [1]: 28 nM
Molecule: COC(=O)Cn1ccnc1CNc1ccc2ncc(C#N)c(Nc3ccc(F)c(Cl)c3)c2c1 [Example 137, Methyl 2-(2-((4-(3-chloro-4-fluorophenylamino)-3-cyanoquinolin-6-ylamino)methyl)-1H-imidazol-1-yl)acetate]

IC50 [3]: 150 nM
Molecule: CC1CC(C)CN(CCCn2cc(CNc3cc(Cl)c4ncc(C#N)c(Nc5ccc(F)c(Cl)c5)c4c3)nn2)C1 (centres unmarked) [Example 800]

IC50 [4]: 590 nM
Molecule: CN(C)CCn1cc(CNc2cc(Cl)c3ncc(C#N)c(NC4CCCC4)c3c2)nn1 [Example 946]

IC50 [3]: 67 nM
Molecule: CN(CCn1cc(CNc2cc(Br)c3ncc(C#N)c(Nc4ccc(F)c(Cl)c4)c3c2)nn1)C(=O)OC(C)(C)C [Example 678]

IC50 [3]: 620 nM
Molecule: CC(=O)N1CCCCC1CNc1cc(Cl)c2ncc(C#N)c(Nc3ccc(F)c(Cl)c3)c2c1 (centres unmarked) [Example 875]

IC50 [1]: 1500 nM
Molecule: CC(C)(C)OC(=O)N1CCC(CNc2ccc3ncc(C#N)c(Nc4ccc(F)c(Cl)c4)c3c2)C1 (centres unmarked) [Example 52, 3-{[4-(3-Chloro-4-fluoro-phenylamino)-3-cyano-quinolin-6-ylamino]-methyl}-pyrrolidine-1-carboxylic acid tert-butyl ester]

IC50 [1]: 42 nM
Molecule: CSc1ncc(CNc2cc(Cl)c3ncc(C#N)c(Nc4ccc(F)c(Cl)c4)c3c2)cn1 [Example 281, 8-Chloro-4-[(3-chloro-4-fluorophenyl)amino]-6-({[2-(methylthio)pyrimidin-5-yl]methyl]amino)quinoline-3-carbonitrile]

IC50 [4]: 130 nM
Molecule: CC(C)N1CCC(n2cc(CNc3cc(Cl)c4ncc(C#N)c(NC5CCC5)c4c3)nn2)CC1 [Example 999]

IC50 [3]: 52 nM
Molecule: N#Cc1cnc2c(Cl)cc(NCc3cn(CCCNC4CCCC4)nn3)cc2c1Nc1ccc(F)c(Cl)c1 [Example 914]

IC50 [2]: 47 nM
Molecule: N#Cc1cnc2c(Cl)cc(NCc3cc[nH]n3)cc2c1Nc1ccc(F)c(Cl)c1 [Example 427]

IC50 [2]: 420 nM
Molecule: N#Cc1cnc2c(Cl)cc(NCC(=O)N3CCNCC3)cc2c1Nc1ccc(F)c(Cl)c1 [Example 470]

IC50 [4]: 310 nM
Molecule: N#Cc1cnc2c(Cl)cc(NCc3cn(CCN4CCNCC4)nn3)cc2c1Nc1ccc(F)c(Cl)c1 [Example 958]

IC50 [3]: 15 nM
Molecule: N#Cc1cnc2c(Br)cc(NCc3cn(-c4cc[n+]([O-])cc4)nn3)cc2c1Nc1ccc(F)c(Cl)c1 [Example 748]

IC50 [3]: 1.1 nM
Molecule: N#Cc1cnc2c(Cl)cc(NCc3cn(CCCN4CCCCC4)nn3)cc2c1Nc1ccc(F)c(Cl)c1 [Example 712]

IC50 [2]: 70 nM
Molecule: CN(C)CC(c1ccccc1)n1cc(CNc2cc(Cl)c3ncc(C#N)c(Nc4ccc(F)c(Cl)c4)c3c2)nn1 (centres unmarked) [Example 574]

IC50 [4]: > 3000 nM
Molecule: N#Cc1cnc2c(Cl)cc(NCc3cn(C4CCNCC4)nn3)cc2c1NC1CCC2(CCCCC2)CC1 [Example 978]

IC50 [4]: 910 nM
Molecule: N#Cc1cnc2c(Cl)cc(NCc3cn(Cc4cncc(C(O)(C(F)(F)F)C(F)(F)F)c4)nn3)cc2c1Nc1ccc(F)c(Cl)c1 [Example 1025]

IC50 [1]: 11000 nM
Molecule: N#Cc1cnc2ccc(NC(=O)c3ccccc3)cc2c1Nc1ccc(F)c(Cl)c1 [Example 1, N-[4-(3-Chloro-4-fluoro-phenylamino)-3-cyano-quinolin-6-yl]-benzamide]
